Measurements published in patent US20220184008A1, “MODULATORS OF INTRACELLULAR CHLORIDE CONCENTRATION” (FONDAZIONE ISTITUTO ITALIANO DI TECNOLOGIA, priority 2019, published 2022).

Key:
NKCC1 [1] = experiment: Calcium kinetic assay in primary cultures of immature hippocampal neurons; type: cell-based; conditions: 10 μM, immature neurons 3 DIV
Method: FIG. 2: In vitro testing of the NKCC1 inhibitors in a calcium kinetic assay. a) Example traces of fluorescence levels upon application of GABA (100 μM) and KCl (90 mM) used to trigger calcium influx in primary neuronal cultures treated after 3 days in culture (3 DIV) with vehicle, bumetanide, furosemide and compounds 3.8, 3.13 and 3.17 in the calcium kinetic assay. b) Quantification of the average fluorescence increase upon GABA application normalized to the increase upon KCl application in neurons treated with bumetanide, furosemide and 3 exemplary compounds (3.8, 3.13, 3.17) (10 μM, 100 μM). Data represents mean±sem from 5 independent experiments, and they are presented as % of the control. *P<0.05, **P<0.01, ***P<0.001 Kruskal-Wallis Anova (Dunn's Post hoc Test).
Next, the compounds of the invention were tested for their ability to revert the depolarizing GABAergic signaling in immature neurons. This effect was indirectly measured as calcium influx into the cells with an in vitro calcium kinetic assay in primary cultures of hippocampal neurons. The calcium kinetic assay exploits the physiological, endogenous, high expression of NKCC1 in immature neurons, which causes depolarizing actions of GABA and can activate voltage-gated Ca^2+ channels. Thus, in immature neurons, a compound that blocks NKCC1 is predicted to inhibit Ca^2+ responses upon GABA application. Immature neurons were cultured for 3 days in vitro (3 DIV) and loaded for 15 min with a calcium-sensitive dye (Fluo4). Then, the neurons were treated with bumetanide and furosemide (as positive controls) or with each of the selected compounds for 15 min. As a functional readout, the fluorescence level was monitored in these cultures before and after application of GABA (100 μM, for 20 sec). To test for neuronal viability at the end of the experiment, KCl was applied (90 mM, for 40 sec), which strongly depolarizes neurons, causing high activation of voltage-gated Ca^2+ channels in live cells. To quantify how bumetanide, furosemide, and selected compounds influenced NKCC1 inhibition, the fluorescence values were normalized upon GABA application to the fluorescence levels upon KCl application in treated neurons.

NKCC1 [2] = molecular target: T1, NKCC1 (Homo sapiens, UniProt P55011); experiment: Chloride kinetic assay (Cl-sensitive YFP) in NKCC1-transfected HEK293 cells; type: cell-based; conditions: 10 μM, NKCC1-transfected HEK293; for inhibition at 10 µM: read-out: NKCC1 Inhibition % 10 μM HEK Chloride YFP assay
T1 construct: expressed in transfected cells; host or cells: HEK293
T1 sequence (P55011 1-1212): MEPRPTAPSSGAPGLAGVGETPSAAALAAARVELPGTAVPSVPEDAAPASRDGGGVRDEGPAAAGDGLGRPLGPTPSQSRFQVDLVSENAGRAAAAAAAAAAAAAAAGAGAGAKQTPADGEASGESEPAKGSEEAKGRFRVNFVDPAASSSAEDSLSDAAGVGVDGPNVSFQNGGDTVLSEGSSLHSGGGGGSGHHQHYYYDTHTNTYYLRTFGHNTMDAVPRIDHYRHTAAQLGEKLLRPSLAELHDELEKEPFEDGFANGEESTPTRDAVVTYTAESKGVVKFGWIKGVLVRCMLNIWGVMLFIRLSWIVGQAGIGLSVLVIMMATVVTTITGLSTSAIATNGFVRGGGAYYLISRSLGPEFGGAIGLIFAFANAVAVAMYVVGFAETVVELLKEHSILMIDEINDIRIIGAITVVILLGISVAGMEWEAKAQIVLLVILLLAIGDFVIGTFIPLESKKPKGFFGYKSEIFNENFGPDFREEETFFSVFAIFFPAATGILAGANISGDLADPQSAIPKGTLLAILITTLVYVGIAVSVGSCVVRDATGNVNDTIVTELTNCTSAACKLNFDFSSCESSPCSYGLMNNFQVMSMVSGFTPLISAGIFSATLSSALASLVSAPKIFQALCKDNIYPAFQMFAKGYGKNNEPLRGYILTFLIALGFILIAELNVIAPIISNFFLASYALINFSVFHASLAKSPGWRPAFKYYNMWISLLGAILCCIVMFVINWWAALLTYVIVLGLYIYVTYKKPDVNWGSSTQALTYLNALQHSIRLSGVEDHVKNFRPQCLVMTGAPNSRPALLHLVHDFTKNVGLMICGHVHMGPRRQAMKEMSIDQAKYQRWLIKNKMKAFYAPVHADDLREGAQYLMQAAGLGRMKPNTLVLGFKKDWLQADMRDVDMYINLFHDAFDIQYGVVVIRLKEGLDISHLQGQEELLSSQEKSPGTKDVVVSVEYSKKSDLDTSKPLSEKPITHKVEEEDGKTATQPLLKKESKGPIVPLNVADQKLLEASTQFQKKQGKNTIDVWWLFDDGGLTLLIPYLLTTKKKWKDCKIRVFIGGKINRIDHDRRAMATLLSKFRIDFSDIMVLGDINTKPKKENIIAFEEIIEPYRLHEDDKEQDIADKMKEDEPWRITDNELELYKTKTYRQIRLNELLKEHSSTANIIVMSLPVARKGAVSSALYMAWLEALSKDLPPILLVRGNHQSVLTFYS
Method: FIG. 1: In vitro testing of the NKCC1 inhibitors in the chloride kinetic assay a) Example traces obtained in the chloride kinetic assay on HEK cells transfected with the YFP (mock) or with YFP and NKCC1. The arrow indicates the addition of NaCl (final concentration 74 mM) used to initiate the flux assay. b) Quantification of the effect of bumetanide (10 μM and 100 μM) or furosemide (10 μM and 100 μM) in the chloride kinetic assay on mock or NKCC1-transfected HEK293 cells. Data represents mean±sem from 5 independent experiments. c) Quantification of the effect of bumetanide and furosemide and 2 selected compounds (3.8, 3.17) in the chloride kinetic assay on NKCC1-transfected HEK293 cells. Data represents mean±sem from 5 independent experiments, and they are represented as % of the controls. *P<0.05, **P<0.01, ***P<0.001 Kruskal-Wallis Anova (Dunn's Post hoc Test); ###P<0.001 two-tailed unpaired Student t-test.
To screen in vitro the compounds efficiency in blocking NKCC1, a functional NKCC1 transporter assay was performed by measuring variation of Cl^− ion concentration in the cell through a Cl^− sensitive membrane-tagged yellow fluorescent protein (mbYFPQS, Addgene). mbYFPQS fluorescence is inversely dependent on the concentration of Cl^− inside the cell thus allowing an indirect estimation of the Cl^− transporter activity. In particular, HEK293 cells were transfected with NKCC1 or mock construct (control) together with the Cl^− sensitive YFP. After 2 DIV, the cells were treated with bumetanide and furosemide (as positive controls) or with each of the tested compounds of the invention in a Cl^− free medium. After 30 min, the inhibitory activity of the compounds was tested by monitoring fluorescence upon application of NaCl (FIG. 1a). Transported by NKCC1, Cl binds the YFP, leading to a fluorescence decrease. […] With the Cl kinetic assay, the NKCC1 inhibitory activity of the selected compounds was tested (FIG. 1c).

## O=C(O)c1ccc(NCCCCCCCC(F)(F)F)c(S(=O)(=O)N2CCCCC2)c1 [Compound 5.6, 3-(1-piperidylsulfonyl)-4-(8,8,8-trifluorooctylamino) benzoic acid]
NKCC1 [1]; Table 1
  NKCC1 Inhibition % 10 μM Neurons Calcium kinetic assay: 55%
NKCC1 [1]; Table 2
  NKCC1 Inhibition % 10 μM Neurons Calcium kinetic assay: 55%
NKCC1 [2]; Table 1
  NKCC1 Inhibition % 10 μM HEK Chloride YFP assay: Inactive
NKCC1 [2]; Table 2
  NKCC1 Inhibition % 10 μM HEK Chloride YFP assay: Inactive

## O=C(O)c1ccc(NCCCCCCCC(F)(F)F)c(S(=O)(=O)N2CCOCC2)c1 [Compound 5.7, 3-morpholinosulfonyl-4-(8,8,8-trifluorooctylamino) benzoic acid]
NKCC1 [1]; Table 1
  NKCC1 Inhibition % 10 μM Neurons Calcium kinetic assay: 24%
NKCC1 [1]; Table 2
  NKCC1 Inhibition % 10 μM Neurons Calcium kinetic assay: 24%
NKCC1 [2]; Table 1
  inhibition at 10 µM: 13%

## NS(=O)(=O)c1cc(C(=O)O)c(O)cc1NCCCCCCCC(F)(F)F [Compound 7.4, 2-hydroxy-5-sulfamoyl-4-(8,8,8-trifluorooctylamino) benzoic acid]
NKCC1 [1]; Table 1
  NKCC1 Inhibition % 10 μM Neurons Calcium kinetic assay: 24%
NKCC1 [2]; Table 1
  inhibition at 10 µM: 30%
